Measured values as given in US20080187922A1 (priority 2006, published 2008).
≈ marks a conversion by molar mass, not a printed value.

Tested on: Mycobacterium smegmatis recombinant strains
Experiment: microbe, parasite or virus in culture
Assay type: cell-based
Details: Mycolicibacterium smegmatis, read-out: RFP MIC

## CO[C@H]1/C=C/O[C@@]2(C)Oc3c(C)c(O)c4c(O)c(c(/C=N/N5CCN(C)CC5)c(O)c4c3C2=O)NC(=O)/C(C)=C\C=C\[C@H](C)[C@H](O)[C@@H](C)[C@@H](O)[C@@H](C)[C@H](OC(C)=O)[C@@H]1C [RFP, 3-(4-Methylpiperazinyliminomethyl)-rifamycin]
  MIC: 150 µg/mL (≈ 182 µM)
